Experimental findings from patent publication US9028856B2, “Synergistic pesticide compositions” (priority 2008, dated 2015) are described below.

Data set [1] concerns Argentine ant, Linepithema humile. Kind of data set: Knockdown/mortality of ant workers under continuous exposure on treated glazed tile. The settings on record: for toxicity / efficacy of the substance alone (summary in words): Argentine ant, treated glazed tile; for Average % Knockdown & Mortality after 2 hr / Average % Knockdown & Mortality after 5 hr: Table 22, imidacloprid/tritylchloride in acetone. The method, then: (§1) Solutions of imidacloprid at 0.5% AI were prepared with and without methyl oleate @0.1, 1.0 and 5.0% in acetone. Treatments were applied using a micropipette to dispense 1 ml of test solution evenly on a 6″×6″ glazed tile. Actual coverage was about 5″×5″ (or 161 cm^2) for easy handling. Treatments were allowed to dry overnight. Ten Argentine ant workers were placed within a fluon or talc-coated PVC ring (φ7.6 cm×H 5.1 cm) under continuous exposure. A small vial filled with a cotton ball soaked in water was added as a drinking source after 3 hours. Treatments were replicated a minimum of three times. Evaluations for ant knockdown/mortality were made at various intervals and at 24 hours after exposure.
as §1, with “MATERIALS AND METHODS: Solutions” for “Solutions”, “linoleate” for “oleate”
as §1, with “MATERIALS AND METHODS: Solutions of” for “Solutions of”, “without methyl palmitate @0.1, 1.0” for “without methyl oleate @0.1, 1.0”, “after exposure. […]” for “after exposure.”

In data set [2] the test system is bait averse/resistant German cockroach (T-164 strain). Nature of the data set: Knockdown/mortality of male cockroaches under continuous exposure on treated glazed tile. To be noted: for toxicity / efficacy of the substance alone (summary in words): German cockroach T-164, treated glazed tile; for Average % Knockdown & Mortality after 3 hr: Table 23, imidacloprid/tritylchloride in acetone, T-164 strain. In kind it is in vivo, Blattella germanica. Also noted: Average % Knockdown & Mortality after 5 hr / Average % Knockdown & Mortality after 30 min: concentration or dose not given beside the values.

Data set [3] deals with Red Imported Fire ant (RIFA), Solenopsis invicta. Nature of the data set: Knockdown/mortality of ant workers under continuous exposure on treated glazed tile. In kind it is in vivo. To be noted: Table 72, β-cyfluthrin study, Red Imported Fire ant; for Average % Mortality after 15 min: glazed tile, continuous exposure, adjuvant = Compound A 1% + Compound B 0.5%. The text has this: Treatments were allowed to dry overnight. […] Treatments were replicated minimum three times.
Treatments were allowed to dry overnight. […] Treatments were replicated a minimum of three times.

The mark [4] stands for this setting: Table 19 (Ex. 16), glazed tile, continuous exposure.
Setting [5] is: Table 19 (Ex. 16), glazed tile, continuous exposure, listed as TBHQ (0.1%).
Setting [6] is: Table 19 (Ex. 16), glazed tile, continuous exposure, listed as TBHQ (1%).
Setting [7] is: Table 19 (Ex. 16), glazed tile, continuous exposure, listed as TBHQ (5%).
Where [8] appears, read: Table 18 (Ex. 15), glazed tile, continuous exposure, listed as TBHQ (1%).
The mark [9] stands for this setting: Table 18 (Ex. 15), glazed tile, continuous exposure, listed as TBHQ (5%).
Setting [10] is: glazed tile, continuous exposure.

For the compound `CC(C)(C)c1cc(O)ccc1O` [TBHQ, tertiary butyl dihydroxyquinone], the “toxicity / efficacy of the substance alone (summary in words)” value (shortened to “toxicity / efficacy”) in data set [1] is “toxic effect”; in data set [2], “at the higher rates (1 & 5%) showed delayed toxic effect”. Further, the “Average % Knockdown & Mortality after 30 min” value in data set [1] (setting [4]) came to 0%; in data set [2] (Table 18 (Ex. 15), glazed tile, continuous exposure) it was 0%. For the same compound, the “Average % Knockdown & Mortality after 1 hr” value in data set [1] (setting [4]) worked out at 0%; in data set [2] (setting [8]), 0%; in data set [2] (setting [9]), 7%. Further, the entries for the “Average % Knockdown & Mortality after 6 hr” value in data set [1] (setting [5]), in data set [1] (setting [6]) and in data set [1] (setting [7]) were 7%, 10% and 23%, respectively. Further, the “Average % Knockdown & Mortality after 24 hr” value in data set [1] (setting [5]) was 11%; in data set [1] (setting [7]) it was 100%; in data set [2] (Table 18 (Ex. 15), glazed tile, continuous exposure, listed as TBHQ (0.1%)) it was 7%; in data set [2] (setting [8]) it was 40%; in data set [2] (setting [9]) it was 47%. In addition, the “Average % Knockdown & Mortality after 4 hr” value is 0% in data set [1] (setting [6]), 10% in data set [1] (setting [7]), 0% in data set [2] (setting [8]) and 7% in data set [2] (setting [9]). Also, the results for the “Average % Knockdown & Mortality after 2 hr” value in data set [2] (setting [8]) and in data set [2] (setting [9]) were 0% and 7%, respectively.
Take `ClC(c1ccccc1)(c1ccccc1)c1ccccc1` [Tritylchloride (0.1%)]: in data set [1] (setting [10]), the “Average % Knockdown & Mortality after 2 hr” value came out at 0% and the “Average % Knockdown & Mortality after 5 hr” value is 0%. In addition, the “Average % Knockdown & Mortality after 3 hr” value in data set [2] (glazed tile) is recorded as 0%.
`ClC(c1ccccc1)(c1ccccc1)c1ccccc1` [Tritylchloride (1%)]: in data set [1] (setting [10]), the “Average % Knockdown & Mortality after 2 hr” value came to 0% and the “Average % Knockdown & Mortality after 5 hr” value amounted to 0%. Moreover, the “Average % Knockdown & Mortality after 3 hr” value in data set [2] (glazed tile) is on record as 0%.
For the compound `ClC(c1ccccc1)(c1ccccc1)c1ccccc1` [Tritylchloride (5%)], in data set [1] (setting [10]), the “Average % Knockdown & Mortality after 2 hr” value is recorded as 0% and the “Average % Knockdown & Mortality after 5 hr” value is given as 0%. Also, the “Average % Knockdown & Mortality after 3 hr” value in data set [2] (glazed tile) came to 0%.
In the case of `ClC(c1ccccc1)(c1ccccc1)c1ccccc1` [Tritylchloride, triphenyl methyl chloride (tritylchloride)], the “toxicity / efficacy” value in data set [1] and in data set [2] was “not toxic” in each case.
For `O=C(O)CCc1ccccc1` [benzenepropanoic acid], the entries for the “toxicity / efficacy” value in data set [1] and in data set [2] were “not toxic” and “slightly to not toxic”, respectively. In addition, the “Average % Knockdown & Mortality after 3 hr” value in data set [1] (Table 4 (Ex. 1), glazed tile, continuous exposure) was found to be 0%. Moreover, the “Average % Knockdown & Mortality after 7 hr” value came to 0% in data set [1] (Table 4 (Ex. 1), glazed tile, continuous exposure, listed as Benzenepropanoic acid(1%)) and 7% in data set [1] (Table 4 (Ex. 1), glazed tile, continuous exposure, listed as Benzenepropanoic acid(5%)). The “Average % Knockdown & Mortality after 15 min” value in data set [2] (Table 5 (Ex. 2), glazed tile, continuous exposure) worked out at 0%.
Regarding `CC1(C)C(C=C(Cl)Cl)C1C(=O)OC(C#N)c1ccc(F)c(Oc2ccccc2)c1` (stereo not drawn) [β-cyfluthrin (.001%)], in data set [3], the “Average % Mortality after 15 min” value came out at 39%, the “Average % Mortality after 30 min” value is on record as 100%, the “Average % Mortality after 60 min” value is 100% and the “Average % Mortality after 24 hr” value was 100%.
In the case of `CC1(C)C(C=C(Cl)Cl)C1C(=O)OC(C#N)c1ccc(F)c(Oc2ccccc2)c1` (stereo not drawn) [β-cyfluthrin (.005%)], in data set [3], the “Average % Mortality after 15 min” value was 100%, the “Average % Mortality after 30 min” value was 100%, the “Average % Mortality after 60 min” value stood at 100% and the “Average % Mortality after 24 hr” value is recorded as 100%.
